Experimental data: a melting point compilation (Tetko et al.; mined from patent text by program, amines drawn as free bases though some values may be those of a salt)

With CC(=NOCCOc1ccc(CC2SC(=O)N(C(c3ccccc3)(c3ccccc3)c3ccccc3)C2=O)cc1)c1ccc(N(C)S(=O)(=O)c2ccccc2)cc1 (stereo not given) the melting point was 143 to 145 °C.
COc1ccc(C(=O)C2CCCCC2C(=O)O)cc1OC (stereo not given) showed a melting point of 171 to 175 °C.
For Cc1nnc(C2CN3CCC2CC3)o1 (stereo not given), the melting point was 147 to 148 °C.
Work on CCCCN(CCCC)C(=O)c1c(C)n(CCc2ccccc2)c2ccc(O)c(CN3CCCCC3)c12 yielded a melting point of 105 to 107 °C.
Compound O=c1cccccc1N1CCN(c2cccccc2=O)CC1 has a melting point of 184 to 186 °C.
For CC1CN(c2cc3c(cc2F)c(=O)c(C(=O)O)cn3CCF)CCN1 (stereo not given), the melting point was 226 to 227 °C.
Work on Cc1[nH]c(=O)n(-c2cc(C(=O)OC(C)C)c(Cl)cc2F)c(=O)c1Cl yielded a melting point of 198 to 201 °C.
Work on Clc1cc(C2CO2)cc(OCc2ccccc2)c1OCc1ccccc1 (stereo not given) yielded a melting point of 154 to 159 °C.
COc1ccc2c(Cc3c(Cl)cncc3Cl)nncc2c1C=Cc1ccccc1 showed a melting point of 180 to 182 °C.
With Cc1cccc2c1N(N=C=O)C(=O)CN=C2 the melting point was 206 to 212 °C.
For CC(CCCC(C)(C)O)C1CCC2C3=CC=C4CC(O)C5OC5C4(C)C3CCC21C (stereo not given), the melting point was 173 to 175 °C.
For c1ccc(-c2onc3ccc(Oc4ccc5noc(-c6ccccc6)c5c4)cc23)cc1, the melting point was 158 to 165 °C.
In the case of CCOc1ccc(C2C(C(=O)c3ccc(C(C)C)cc3)=C(O)C(=O)N2c2ccc(C)nn2)cn1 (stereo not given), the melting point is reported as 274 to 276 °C.
In the case of CN(C)c1nc(Cl)nc(Cl)n1, the melting point is reported as 123 to 124 °C.
Work on O=C1C=C(c2ccccc2)S(=O)(=O)C(c2cccs2)=C1 yielded a melting point of 162 to 164 °C.
COC(=O)CCCc1cc2nc(Cl)ccc2n1S(=O)(=O)c1cc(C)cc(C)c1 gave a melting point of 138 °C.
In the case of N#Cc1cnccc1-c1c(-c2ccccc2)nn2ccccc12, the melting point is reported as 208 to 210 °C.
For Fc1cc(F)cc(Cc2cccnc2S)c1, the melting point was 195 to 197 °C.
CCOC(=O)c1cc(COc2cc3ncnc(Nc4ccc(Cl)cc4F)c3cc2OC)ccn1 gave a melting point of 212 to 214 °C.
Work on Clc1ccc(-c2nc3cccnc3n2Cc2ncc[nH]2)cc1 yielded a melting point of 184 to 185 °C.
For COC(=O)c1[nH]c2cccc3c2c1CCNC3=O, the melting point was 266 to 267 °C.
For CC(=O)Nc1ccc([N+](=O)[O-])c(C=O)c1, the melting point was 131 to 135 °C.
O=[N+]([O-])c1cc(Cl)c(OCCCO)c([N+](=O)[O-])c1OCCCO gave a melting point of 90 °C.
CC12CC(=O)C3C(CCC4C(Br)C(O)CCC43C)C1CCC2C(=O)CBr (stereo not given) showed a melting point of 164 to 166 °C.
For CCCC1COc2cc(C3COc4cc(C#N)c(F)cc4C3)c(F)cc2C1 (stereo not given), the melting point was 122 °C.
CCN(C)c1cc(F)cc(C(=O)Nc2ccc(OCCN3CCOCC3)c3ccccc23)c1 showed a melting point of 126 to 128 °C.
For CON=C(Nc1nc(C)cc(C)n1)NS(=O)(=O)c1ccccc1-c1ccccc1, the melting point was 190 to 192 °C.
Fc1ccc(OCCCN2CCN(c3ncc4ccccc4n3)CC2)cc1 showed a melting point of 126 to 128 °C.
In the case of COCCC(=O)N[C@H]1CC[C@H](CCN2CCN(c3ncc(C)c4c3CCO4)CC2)CC1, the melting point is reported as 164 °C.
For COc1cccc(S(N)(=O)=O)c1C, the melting point was 193 °C.
With COc1cc(C)c(CCCCCCCCCCCCCCCCCCCCCC(=O)O)c(O)c1OC the melting point was 67 to 68 °C.
With C=CCc1[nH]cc(C#N)c1-c1ccc(Cl)cc1C(=O)c1ccccc1F the melting point was 142 to 144 °C.
Work on COC1=C(OC)C(=O)C2=C(CCC(CCn3cnc4ccccc43)CC2)C1=O yielded a melting point of 159 to 163 °C.
In the case of COC(=O)[C@@H]1NC(=O)[C@@H]1NC(=O)COc1ccccc1 (relative stereo), the melting point is reported as 140 to 141 °C.
Compound COc1ccc2c(c1CC=C(C)C)OC(c1ccc(O)cc1O)CC2 (stereo not given) has a melting point of 95 to 96 °C.
CCCCCCCCCCCCCCCCOCC(CO)OCOC(c1ccccc1)(c1ccccc1)c1ccccc1 (stereo not given) showed a melting point of 38 °C.
Compound Nc1c(-c2ccc(OC(F)(F)F)cc2)nnn1-c1ccc(C(F)(F)F)cc1F has a melting point of 134 to 135 °C.
In the case of CN1C=CNC1=C(C(=O)C(F)(F)F)C(=O)C(F)(F)F, the melting point is reported as 180 °C.
Compound Nc1nc(NCCC2CCC3(CC2)OCCO3)nc2c1ncn2C1OC(CO)C(O)C1O (stereo not given) has a melting point of 133 to 137 °C.
With c1cncc(C2=NOC(C3CC3)(N3CCCC3)C2)c1 (stereo not given) the melting point was 90 to 92 °C.
CNC(=O)CC1CCN(Cc2cnc3c(C)c(NC(=O)c4ccc(-c5ccc(F)cc5)cc4)ccc3c2)CC1 gave a melting point of 229 to 231 °C.
OCc1ccc2ccc3c4ccccc4ccc3c2c1 showed a melting point of 187 to 189 °C.
Compound COC(=O)[C@@](C#N)(Cc1ccc(Br)cc1)[C@H](c1ccccc1OC)c1cccc2ccccc12 (relative stereo) has a melting point of 218 to 219 °C.
COCCN1CCN(CC2CCN(c3ccc(Cl)cc3)C2=O)CC1 (stereo not given) showed a melting point of 103 to 105 °C.
Cn1c(CCN2CCN(c3ccc(Cl)cc3)CC2)nc2ccc3ccccc3c21 showed a melting point of 213 to 215 °C.
In the case of O=C1c2cc3nnn(Cc4cccc(F)c4)c(=O)c3cc2OC2CCCN12 (stereo not given), the melting point is reported as 183 to 185 °C.
Work on COC(=O)N(CC(=O)Nc1ccc(S(N)(=O)=O)cc1Cl)c1ccccc1 yielded a melting point of 196 to 198 °C.
COC(=O)c1ccc(OCCF)cc1 gave a melting point of 77 °C.
COc1ccccc1-c1ccc(C(=O)O)cc1C showed a melting point of 160 to 162 °C.
Cc1c(-c2ccccc2)n(-c2ccc(F)cc2)c(-c2ccccc2)cc1=O gave a melting point of 256 to 259 °C.
With CC(=O)N1CC=C(C#Cc2ccc3c(c2)NC(=O)CC(c2cccc(C#N)c2)=N3)CC1 the melting point was 203 °C.
Work on Cc1cc(F)ccc1Nc1nc(N(C)c2ccccc2)c2cc(OCCCN3CCOCC3)ccc2n1 yielded a melting point of 119 to 120 °C.
Compound CC(C)(C)OC(=O)NC1Cc2ccccc2N(c2ccccc2)C1 (stereo not given) has a melting point of 139 to 141 °C.
In the case of Cn1c(=O)n(CCO)n(CCO)c1=O, the melting point is reported as 126 to 127 °C.
Work on CNc1nc(-c2ccco2)c2ncn(Cc3ccc(OC)cc3)c2n1 yielded a melting point of 144 to 145 °C.
For CC(C)(O)c1cccc2ccccc12, the melting point was 81 to 86 °C.
Work on O=c1c2ccccc2nc(-c2cc(-c3ccccc3)c(N3CCOCC3)s2)n1-c1ccccc1Cl yielded a melting point of 160 to 161 °C.
In the case of Cc1c(F)c(F)c(C(O)C#N)c(F)c1F (stereo not given), the melting point is reported as 124 °C.
Work on COC(=O)CNC(C)=S yielded a melting point of 78 to 79 °C.
Work on O=C(c1ccc(Nc2ncnc3ccccc23)cc1)N1CCN(c2ncc(Cc3ccccc3)cn2)CC1 yielded a melting point of 245 to 247 °C.
Work on CN1CCC(O)(c2cccc(F)c2F)C1 (single isomer, unassigned; (-)) yielded a melting point of 131 to 132 °C.
Work on CC(=O)Oc1cccc(C(C)=NOCCOc2ccc(CC3SC(=O)NC3=O)cc2)c1 (stereo not given) yielded a melting point of 30 to 50 °C.
COc1ccc(-c2[nH]cnc2-c2cc(OC)c([N+](=O)[O-])c(OC)c2)cc1O showed a melting point of 148 to 149 °C.
Work on CC(C)(C)CC(C)(CO)C(=O)O (stereo not given) yielded a melting point of 96.5 to 100 °C.
Brc1ccc(CN2CCOCC2)cc1 showed a melting point of 68 to 71 °C.
In the case of CON=C1CN(c2c(F)cc3c(=O)c(C(=O)O)cn(C4CC4)c3c2Cl)CC12CNC2, the melting point is reported as 220 to 221 °C.
Cn1nc(C(F)F)c(CS(=O)(=O)C2=NOC(C)(C)C2)c1Cl gave a melting point of 78 to 79 °C.
Compound C=CCSc1ccc(Oc2ccccc2)nn1 has a melting point of 71 to 73 °C.
Work on N#CC(C(=O)c1ccc(Cl)cc1)=C1CCC(C(=O)O)N1 (stereo not given) yielded a melting point of 134 to 136 °C.
In the case of C=CCC(CCC=NO)C1=C(O)CC(c2ccc(N)cc2)CC1=O (stereo not given), the melting point is reported as 92 °C.
Work on CCCCCc1ccc(CCCCCC(=O)O)cc1 yielded a melting point of 29 to 30 °C.
Compound CCCc1c(OCC(O)COc2ccc3c(c2CCC)OC(C(=O)O)CC3=O)ccc(C(C)=O)c1O (stereo not given) has a melting point of 68 to 72 °C.
With COc1ccc(C(=O)c2cccc([N+](=O)[O-])c2C)cc1 the melting point was 110 to 113 °C.
Work on C/C(=C\C=O)c1ccc(OCc2nc(-c3ccccc3)oc2C)cc1 yielded a melting point of 94 to 95 °C.
With O=c1[nH]nc2c3c(cccc13)N=C(CN1CCCN(S(=O)(=O)c3ccccc3)CC1)N2 the melting point was 265 to 268 °C.
In the case of Cc1c(C)c2c(c(C3CC(=O)C=C(O)C3)c1C)OCC2 (stereo not given), the melting point is reported as 264 °C.
For O=C(CCCl)Nc1ccc2[nH]ncc2c1, the melting point was 158 to 160 °C.
C=C(C)C(=O)OCCN(CCOC(=O)C(=C)C)c1ccc(N=Nc2ccc([N+](=O)[O-])cc2)cc1 showed a melting point of 88 to 90 °C.
In the case of O=Cc1c[nH]c2c1ccc1c3ccccc3[nH]c12, the melting point is reported as > 290 °C.
In the case of c1ccc(Cc2nc3cnc4ccccc4c3s2)cc1, the melting point is reported as 111 to 113 °C.
In the case of COc1cc(Cl)cnc1OCC#Cc1cccc(OCC#N)n1, the melting point is reported as 118 °C.
Compound CCCCCCCCCCCCCCCCSCC1(CS(=O)(=O)CCCI)CCCO1 (stereo not given) has a melting point of 36 to 37 °C.
Compound Cc1cccc2c1CCC(=O)C2(O)C(F)(F)F (stereo not given) has a melting point of 122 to 123 °C.
Work on O=c1[nH]c(-c2c(F)cccc2F)nn1-c1ccccc1C(F)(F)F yielded a melting point of 259 to 260 °C.
In the case of CCC(=O)OC1(C(=O)CCl)CCC2C3CCC4CC(=O)CCC4(C)C3(F)C(=O)CC21C (stereo not given), the melting point is reported as 168 °C.
Cc1ncc(-c2ccc(C(F)(F)F)cc2)c(NC2CCCCC2)n1 showed a melting point of 220 to 225 °C.
In the case of CNC(=O)Oc1ccc(N=Cc2ccccc2O)c2ccccc12, the melting point is reported as 143 to 146 °C.
CCCN1CC(c2ccc(S(C)(=O)=O)cc2)=C(c2ccc(C)cc2)C1=O showed a melting point of 161 to 163 °C.
COCOc1cc2c(c3ccccc13)Nc1ccccc1S2 showed a melting point of 103 °C.
For OC(c1ccc(Cl)cc1)C(Nn1cncn1)c1ccc(F)cc1F (stereo not given), the melting point was 61 to 76 °C.
In the case of CNC(=O)c1cccc2c(-c3ccccc3)c([N+](=O)[O-])oc12, the melting point is reported as 167 to 169 °C.
Work on O=C1c2ccccc2CNc2nc3ccc(Br)cc3c(Cl)c21 yielded a melting point of 260 to 264 °C.
Cc1cc(NCc2ccccc2)c2cc(NC(=O)C=Cc3ccccc3Cl)ccc2n1 showed a melting point of 253 to 254 °C.
Compound COc1ccc(-c2cc(-c3ccc(F)cc3)ccc2C(=O)N2CCOCC2)cc1OC has a melting point of 153 °C.
Cc1cccc(C)c1NC(=O)CN1CCN(CCCC(c2ccc(F)cc2)c2ccc(F)cc2)CCN1 showed a melting point of 145 to 148 °C.
Work on CC(=O)CC(=O)N(C)c1cccc(-c2ccc3nnc(C)n3n2)c1 yielded a melting point of 138 to 141 °C.
N#Cc1ccc2nc(C(=O)NCc3cccc(CNC(=O)c4nc[nH]n4)c3)[nH]c(=O)c2c1 gave a melting point of 218 to 219 °C.
In the case of CCOc1cc(C)nc(-n2ccnc2)n1, the melting point is reported as 116 °C.
Compound O=C1CC(C(=O)O)NN1 (stereo not given) has a melting point of 188 to 190 °C.
CC(=O)C(C)(C)c1nsc2ccc(-n3c(=O)cc(C(F)(F)F)n(C)c3=O)cc12 gave a melting point of 195 to 196 °C.
